# Assay results reported in patent publication US6743895B1, “Bone stimulating factor” (Osteopharm Inc., priority 1995, dated 2004).
# Residues, ends and D or L forms follow the SMILES beside them.
# Legend:
# [1] = tested on: parathyroidectomized rats; assay: Histological evaluation of selected tissues (toxicity experiments); assay type: in vivo, rat; settings: miniosmotic pump, about 25 μg per day
# Procedure: A miniosmotic pump (Alzet) was loaded with about 1.5 ml of the chemically synthesized peptide having an N-terminal acetyl group (SEQ ID NO:2) in 0.1% acetic acid so as to give a calculated daily delivery of about 25 μg per day. A pump was implanted under the subcutaneous fascia of the dorsal aspect of the left side of the thorax of five rats which had been parathyroldectomized seven days earlier. Five similarly parathyroldectomized rats received similar implants containing only 0.1% acetic acid. Five intact rats were also used as controls.
# Histological evaluation of selected tissues of the five rats of each of the groups indicated in Table One were carried out microscopically.
# [2] = tested on: ovariectomized rats; assay: Autopsy after eight week administration to ovariectomized rats; assay type: in vivo, rat; settings: 100 μg s.c. every 24 hours for eight weeks
# Procedure: Eight weeks after ovariectomization, five ovariectomized rats were injected subcutaneously with 100 μl of a 0.1% acetic acid solution containing 100 μg of the chemically synthesized peptide in which the N-terminal amino group was modified with an acetyl group (SEQ ID NO:2). This was done every 24 hours for eight weeks. On day 54, a tetracycline hydrochloride solution was injected intramuscularly into the right gluteus maximus of each rat so as to give 24 mg per Kg of body weight, as described previously. On day 56, a second dose of tetracycline hydrochloride was injected and the rats were sacrificed on the 57th day.
# Post-mortem blood was taken by cardiac puncture and serum frozen until analyzed. An autopsy was performed on each rat.
structure (smiles),measurement,setting,value
CC[C@H](C)[C@H](NC(=O)CNC(C)=O)C(=O)NCC(=O)N[C@@H](CCCCN)C(=O)N[C@@H](CCCNC(=N)N)C(=O)N[C@H](C(=O)N[C@@H](CC(N)=O)C(=O)N[C@@H](CCC(=O)O)C(=O)N[C@@H](Cc1c[nH]cn1)C(=O)N[C@H](C(=O)N[C@@H](C)C(=O)N[C@@H](CC(=O)O)C(=O)N[C@@H](CS)C(=O)N[C@@H](CCCCN)C(=O)N[C@H](C(=O)N[C@@H](CCCCN)C(=O)N1CCC[C@H]1C(=O)N[C@@H](CC(N)=O)C(=O)N[C@H](C(=O)N[C@@H](CC(C)C)C(=O)N[C@@H](Cc1c[nH]cn1)C(=O)N[C@@H](CCCCN)C(=O)N[C@@H](CCCCN)C(=O)N[C@@H](C)C(=O)N[C@@H](C)C(=O)N[C@@H](CCC(=O)O)C(=O)N[C@H](C(=O)N[C@@H](CC(C)C)C(=O)N[C@@H](CCSC)C(=O)N[C@H](C(=O)N[C@@H](CC(C)C)C(=O)N[C@@H](CC(=O)O)C(=O)N[C@@H](CCC(N)=O)C(=O)N[C@@H](CC(N)=O)C(=O)N[C@@H](CCC(N)=O)C(=O)N1CCC[C@H]1C(=O)O)C(C)C)[C@@H](C)O)[C@@H](C)O)[C@@H](C)CC)[C@@H](C)O)[C@@H](C)O [SEQ ID NO:2] (Ac-GIGKRTNEHTADCKIKPNTLHKKAAETLMVLDQNQP-OH),Histological evaluation of selected tissues,[1],No evidence of toxic lesions
same,Autopsy findings,[2],No obvious pathology was observed
